# In patent US9205064B2, “Methods for the diagnosis of oncological disorders using epimetabolic shifters, multidimensional intracellular molecules, or environmental influencers” (Berg LLC, priority 2009, dated 2015):
# Legend:
# [1] = test system: Lactate Dehydrogenase (LDH); experiment: Western blot of lactate dehydrogenase levels; type: cell-based, human; details: cancer cells
# Experimental: The samples were processed and run on a 4-12% Bis-Tris Novex NuPAGE gel as described above. The gels were run, transferred and stained essentially as described above.
# After transfer each blot was dried for 15-20 minutes, activated with methanol for 5 seconds, washed with water for 5 minutes, and TBST for 15 minutes. The blots were blocked for 1 hour with 5% blocking reagent in TBS-T at room temperature and then washed 3 times with TBS-T (1×-15′; 2×5′ each) and probed with the primary antibody for Lactate Dehydrogenase (abcam ab2101; polyclonal) in 5% BSA (at 1:1000 dilutions) by incubation overnight at 4 deg C. with shaking. After the overnight incubation with primary antibody for Lactate Dehydrogenase, the blots were washed 3 times with TBS-T (1×-15′; 2×5′ each) and probed with the secondary antibody (rabbit antigoat; 1:10,000 dilution) for 1 h at room temperature. After 1 h of incubation with secondary antibodies, the blots were washed 3 times with TBS-T (1×-15′; 2×5′ each) and then incubated with ECF reagent for 5 mins and then each blot scanned with 5100 Fuji Laser scanner at 25 uM resolution, 16 bit, green laser, at 400V and at 500 V. […]
# The levels of LDH and PDH were determined by probing the blots successively with primary antibodies for LDH and PDH, essentially as described above. […]
# SKBr3 = experiment: Nexin assay for apoptosis (Annexin-V-PE/7-AAD, flow cytometry); type: cell-based, human; details: 50 μM or 100 μM Q10, 24 hours
# Source text: The 7AAD dye will enter into cells with permeabilized cell membranes; primarily those cells that are in late apoptosis. Annexin-V-PE is a dye that binds to Phosphotidyl serine, which is exposed on the outer surface of the plasma membrane in early apoptotic cells. The Nexin reagent thus can be used to differentiate between different populations of apoptotic cells in a flow cytometer.
structure (smiles),measurement,setting,value
"COC1=C(OC)C(=O)C(C/C=C(\C)CC/C=C(\C)CC/C=C(\C)CC/C=C(\C)CC/C=C(\C)CC/C=C(\C)CC/C=C(\C)CC/C=C(\C)CC/C=C(\C)CCC=C(C)C)=C(C)C1=O [Q10, Coenzyme Q10]",Lactate Dehydrogenase (LDH) expression,[1],reduced
same,early and late apoptosis,SKBr3,did not show any significant increases
